Laboratory results reported in patent publication US6291247A, “Methods of screening for factors that disrupt neurotrophin conformation and reduce neurotrophin biological activity” (priority 1996, dated 2001).

Key:
p75^NTR and TrkA [1] = target: T1, p75^NTR and TrkA (Mus musculus, UniProt P01139); assay: Binding of 125I-NGF to PC12 cells (p75NTR + TrkA); parameters: species or system rat; conditions: 120 min; for steady-state specific binding of 125I-NGF (0.5 nM) to p75NTR and TrkA: ± SEM; for Total Binding to PC12 cells: 125I-NGF
T1 construct: these cells express both NGF receptor types; endogenous in cells; host or cells: PC12 rat pheochromocytoma cells
Method: (§1) PC12 cells were grown in RPMI with 10% heat inactivated donor horse serum and 5% fetal calf serum. […] The tubes were incubated for 2 hr at 4° C. and 100 μl aliquots (providing triplicate data points for each sample) were transferred to 400 μl microcentrifuges containing 200 μl of 10% glycerol in HKR. Tubes were centrifuged for 2 minutes at 5,000 rpm, the tip containing the cell pellet cut off and radioactivity bound to the cells was determined.

p75^NTR and TrkA [2] = tested on: T2, p75^NTR and TrkA; assay: Binding of 125I-NGF to PC12 cells (p75NTR + TrkA); parameters: species or system rat; conditions: for Inhibition of 125I-NGF binding: 100 μM, CaEDTA together with Zn2+
T2 construct: these cells express both NGF receptor types; endogenous in cells; host or cells: PC12 rat pheochromocytoma cells
Method: as §1

NGF = target: T3, NGF (Mus musculus, UniProt P01139); assay: NGF protomer crosslinking with BS3 (NGF conformation), metal ions; format: biochemical; conditions: for NGF monomer crosslinking by BS3: 0.1 nM 125I-NGF, CaEDTA together with Zn2+; for NGF Protomer Conformation (active/inactive): 100 μM
T3 construct: homodimer
Method: For crosslinking NGF […], 0.4 mM BS^3 was added to the mixture and incubated for 30 minutes at 25° C. […] For CD studies, NGF (50 μg/ml) was dissolved in 50 mM Tris-HCl buffer and spectra recorded using a computer controlled Jasco J-600 spectropolarimeter. Samples were acquired in the absence or presence of Zn^2+ (100 μM) at 22° C. in a 2 mm quartz cell averaged over eight scans. Modification of His residues by DEPC was carried out as previously described, where the molar excess of DEPC added and the extent of reaction was determined by evaluating the loss of binding activity of the modified product.

DRG neurons = assay: NGF-mediated neurite outgrowth of DRG neurons, metal ions; format: cell-based, chick; conditions: 100 μM
Method: Dissosiated cells enriched for sensory neurons were prepared from ED8 chick DRG as described (Dostaler, S. M. et al. Characterization of a distinctive motif of the low molecular weight neurotrophin receptor that modulates NGF-mediated neurite growth. Eur. J. Neurosci. 8, 870-879 (1996)). Neurons were seeded at a density of 800-1000 cells/well in Ham's F-12 containing 5% FCS and NGF at 10 pM into wells of Terasaki plates treated with polyysine. The cells were incubated with the indicated additives at 37° C. in a 5% CO2 atmosphere. The cells on the entire lower horizontal surface of the well were scored for neurite growth at 18-20 hours using an inverted microscope fitted with phase contrast optics. A neurite was scored if its caliber from the origin to terminal was constant and its length was equal to or greater than 1.5 cell body diameters. Neurite growth was corrected for background (no NGF).

PC12 cells [3] = assay: NGF-dependent survival of PC12 cells; format: cell-based, rat; conditions: for NGF-mediated survival of PC12 cells: serum-free, CaEDTA together with Zn2+; for Antagonism of NGF-dependent survival: high (1 nM) or low (50 pM) NGF
Method: (§2) Effects of divalent ions on NGF mediated survival and toxicity was evaluated using a colorimetric assay for the lysosomal enzyme acid phosphatase to determine cell number (Connolly, D. T., Knight, M. B., Harakas, N. K, Wittwer, A. J. & Feder, J. Determination of the number of endothelial cells in culture using an acid phosphatase assay. Anal. Biochem. 152, 136-140 (1986); Ueda, Y., Walsh, E., Nakanishi H. & Yoshida, K. A. colorometric assay method for the evaluation of neurotrophic activity in vitro. Neurosci. Lett. 165, 203-207 (1994)). […] To evaluate toxicity, the cells were seeded and maintained without NGF in RPMI with 10% heat inactivated donor horse serum and 5% fetal calf serum in the presence of additives. Loss in viable cell number was determined and expressed as a percent of control. NGF rescues PC12 cells from cell death in serum-free medium(Greene, L. A. Nerve growth factor prevents the death and stimulates neuronal differentiation of clonal PC12 pheochromocytoma cells in serum-free medium. J. Cell Biol. 78, 747-755 (1978)). NGF-dependent survival was assessed by harvesting PC12 cells in balanced salt solution followed with washing by 4 cycles of suspension and centrifugation in serum-free RPMI prior to seeding in 96 well plates. After incubation with additives, medium was removed from the wells and cells washed once with 200 μl PBS. Buffer containing 0.1M sodium acetate pH 5.5, 0.1% Triton X-100 and 10 mM p-nitrophenyl phosphate (Sigma 104 phosphatase substrate) was added to each well (100 μl). Plates were incubated at 37° C. for 3 hours. The reaction was stopped by the addition of 10 μl/well of 1N sodium hydroxide and the color development measured at 405 nm using a microplate reader. The relationship between cell number and enzyme activity was linear over the range 1000 to 15,000 cells.
(§3) To explore the ability of other transition metals to influence the biological activities of NGF, a series of cations known to mimic in certain respects the binding of zinc to proteins were tested. […] For this reason these ions were not tested in NGF- dependant growth phenomena. […] As these studies appeared to indicate potentially complex results upon metal ions binding to NGF, a receptor crosslinking system where specific receptor types could be identified was utilized.

PC12 cells [4] = assay: Toxicity to PC12 cells; format: cell-based, rat; conditions: for Toxicity to PC12 cells: in presence of serum, up to 100 μM; for Toxicity (PC12 cell viability): 100 μM
Method: as §2, §3

TrkA receptor = assay: NGF-dependent TrkA phosphorylation in PC12 cells, metal ions; format: cell-based, rat; conditions: for NGF-induced TrkA phosphorylation: 100 μM, PC12 cells
Method: Zn^2+ and/or other additives were allowed to equilibrate with NGF for 2 hours at 4° C. prior to addition of cells. PC12 cells were used at 10^6 cells/ml and incubated with 40 pM NGF for 15 minutes at 37° C. At the conclusion of the reaction, cells were washed, lysed in TBS containing 10% glycerol, 1% Triton X-100, 1 mM PMSF, 10 μg/ml aprotinin, 1 μg/ml leupeptin and 500 μM orthovanadate (lysis buffer, 10^8 cells/ml). The cellular debris was removed by centrifugation and the soluble proteins incubated with an anti-TrkA cytoplasmic domain antibody. Antibody complexes were isolated by incubating with immobilized protein G (Pierce Ultralink; 70 μl of a 50% slurry) for 2 hours at 4° C. The solid phase was washed extensively with lysis buffer and the pellet dissolved in SDS sample buffer. Proteins were resolved using 6% SDS PAGE and Western analysis performed with anti-phosphotyrosine 4G10 (UBI) visualized with ECL (Amersham).

p75^NTR /TrkA [5] = target: p75^NTR /TrkA (Mus musculus, UniProt P01139); assay: Receptor crosslinking of 125I-NGF with transition metal ions (receptor selectivity); format: binding; conditions: 100 μM
Method: as §3

p75^NTR /TrkA [6] = assay: as above; format: binding
Method: as §3

TrkA = tested on: T4, TrkA; assay: Binding of 125I-NGF to TrkA on PC12 cells (p75NTR blocked with BDNF); parameters: species or system rat; conditions: 100 μM CaEDTA with 100 μM Zn2+; 40 nM BDNF; ± SEM; 120 min
T4 construct: Receptor cross-linking studies were performed on PC12 rat pheochromocytoma cells; endogenous in cells; host or cells: PC12 rat pheochromocytoma cells (ATCC CRL 1721)
Method: as §1

T2 sequence (P01139 122-239): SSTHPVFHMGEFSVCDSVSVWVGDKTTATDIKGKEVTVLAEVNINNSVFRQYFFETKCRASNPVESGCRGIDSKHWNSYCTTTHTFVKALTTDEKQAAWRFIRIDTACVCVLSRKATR
T1 sequence (P01139 122-239): as above
T3 sequence (P01139 122-239): as above
Sequence of p75^NTR /TrkA (P01139 122-239): as above
Sequence of p75^NTR /TrkA (P07174 30-425 partner): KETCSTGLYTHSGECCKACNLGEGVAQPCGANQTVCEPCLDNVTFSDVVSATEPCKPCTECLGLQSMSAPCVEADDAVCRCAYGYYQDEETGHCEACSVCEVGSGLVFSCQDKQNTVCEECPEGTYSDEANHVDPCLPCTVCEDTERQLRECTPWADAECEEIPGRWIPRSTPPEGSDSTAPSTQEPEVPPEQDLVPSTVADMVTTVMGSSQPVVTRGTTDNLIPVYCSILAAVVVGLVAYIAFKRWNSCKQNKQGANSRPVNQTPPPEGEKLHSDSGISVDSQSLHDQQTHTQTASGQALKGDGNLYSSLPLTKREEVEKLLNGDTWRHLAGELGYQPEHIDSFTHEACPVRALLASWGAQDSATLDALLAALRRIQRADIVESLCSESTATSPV
Sequence of p75^NTR /TrkA (P35739 33-799 partner): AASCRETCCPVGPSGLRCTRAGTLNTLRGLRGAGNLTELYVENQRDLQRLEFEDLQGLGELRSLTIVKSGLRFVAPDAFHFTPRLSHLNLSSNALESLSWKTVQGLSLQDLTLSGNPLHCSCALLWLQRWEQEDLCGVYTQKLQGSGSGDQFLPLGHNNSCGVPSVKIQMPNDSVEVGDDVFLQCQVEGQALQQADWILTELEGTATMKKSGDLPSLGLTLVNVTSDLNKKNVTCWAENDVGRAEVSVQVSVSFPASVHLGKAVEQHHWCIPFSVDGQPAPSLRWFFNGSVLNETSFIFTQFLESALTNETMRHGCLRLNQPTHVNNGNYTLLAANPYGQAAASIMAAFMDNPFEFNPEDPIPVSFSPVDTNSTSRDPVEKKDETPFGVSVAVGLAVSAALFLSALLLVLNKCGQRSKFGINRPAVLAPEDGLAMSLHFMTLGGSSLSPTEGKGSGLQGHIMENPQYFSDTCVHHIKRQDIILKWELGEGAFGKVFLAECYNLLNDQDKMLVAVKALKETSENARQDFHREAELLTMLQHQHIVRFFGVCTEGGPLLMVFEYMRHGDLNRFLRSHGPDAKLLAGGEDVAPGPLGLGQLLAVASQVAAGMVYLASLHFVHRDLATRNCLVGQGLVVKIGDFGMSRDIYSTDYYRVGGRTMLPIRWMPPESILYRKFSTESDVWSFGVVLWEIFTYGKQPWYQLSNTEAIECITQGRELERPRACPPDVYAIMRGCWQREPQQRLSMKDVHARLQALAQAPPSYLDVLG
Sequence of p75^NTR /TrkA (Mus musculus, UniProt P01139) (P01139 122-239): as the sequence (P01139 122-239) above
Sequence of p75^NTR /TrkA (Mus musculus, UniProt P01139) (P07174 30-425 partner): as the sequence (P07174 30-425 partner) above
Sequence of p75^NTR /TrkA (Mus musculus, UniProt P01139) (P35739 33-799 partner): as the sequence (P35739 33-799 partner) above
T4 sequence (P01139 122-239): as the sequence (P01139 122-239) above

| SMILES | steady-state specific binding of 125I-NGF (0.5 nM) to p75NTR and TrkA (p75^NTR and TrkA [1]; 100 μM) [% Control] | Inhibition of 125I-NGF binding (p75^NTR and TrkA [2]) | NGF monomer crosslinking by BS3 (NGF) | NGF-induced neurite extension (DRG neurons) | NGF-mediated survival of PC12 cells (PC12 cells [3]; 100 μM) | Toxicity to PC12 cells (PC12 cells [4]) | NGF-induced TrkA phosphorylation (TrkA receptor) | Total Binding to PC12 cells (p75^NTR and TrkA [1]; 100 μM) [% control] | Prevention of 125I-NGF binding to PC12 cells (p75^NTR and TrkA [2]) | NGF Protomer Conformation (active/inactive) (NGF) | Antagonism of NGF-dependent survival (PC12 cells [3]) | Toxicity (PC12 cell viability) (PC12 cells [4]) [% control] | Receptor Selectivity (p75NTR/TrkA) (p75^NTR /TrkA [5]) | Blocking of NGF binding to TrkA and p75NTR in receptor crosslinking (p75^NTR /TrkA [6]) | also measured |
| --- | --- | --- | --- | --- | --- | --- | --- | --- | --- | --- | --- | --- | --- | --- | --- |
| [Ca+2] [Ca^2+, reference compound] | 91 ± 7 | neither Ca^2+ nor Mg^2+ displayed significant inhibition | no effect on crosslinking efficiency | no effect | no effect | not toxic | not detected |  |  |  |  |  |  |  |  |
| [Au+3] [Au^3+] |  |  |  |  |  |  |  | 107 ± 4 | did not show appreciable inhibition | active | ability to antagonize the NGF-dependant survival | 102 ± 13 | TrkA only | selective for blocking the binding of NGF to TrkA but did not prevent the binding of NGF to p75^NTR | Survival @ 50 pM NGF (PC12 cells [3]; rat, pc12 cells, 100 µM): 0.1 ± 9 % control; Survival @ 1 nM NGF (PC12 cells [3]; rat, pc12 cells, 100 µM): -8 ± 5 % control |
| [Mg+2] [Mg^2+, reference compound] | 88 ± 13 | neither Ca^2+ nor Mg^2+ displayed significant inhibition | no effect on crosslinking efficiency | no effect | no effect | not toxic | not detected |  |  |  |  |  |  |  |  |
| [Ni+2] [Ni^2+] |  |  |  |  |  |  |  | 69 ± 18 | did not show appreciable inhibition | inactive | ability to antagonize the NGF-dependant survival | 100 ± 19 | TrkA only | selective for blocking the binding of NGF to TrkA but did not prevent the binding of NGF to p75^NTR | Effect on conformation of NGF in protomer crosslinking (NGF): did not appear to have an effect on the conformation; Survival @ 50 pM NGF (PC12 cells [3]; 100 μM, 50 pM NGF): 15 ± 13 % control; Survival @ 1 nM NGF (PC12 cells [3]; 100 μM, 1 nM NGF): 23 ± 10 % control |
| O=C([O-])CN(CCN(CC(=O)[O-])CC(=O)[O-])CC(=O)[O-].[Ca+2].[Na+].[Na+] [CaEDTA, reference compound] |  | Inhibitory effects of Zn^2+ could also be prevented | prevented the Zn^2+ effects |  | reversed |  | Neither Ca^2+, Mg^2+ nor CaEDTA had a significant effect |  |  |  |  |  |  |  | steady-state specific binding of 125I-NGF (0.5 nM) to p75NTR and TrkA (p75^NTR and TrkA [1]; 100 μM CaEDTA with 100 μM Zn2+): 78 ± 19 % Control; steady-state specific binding of 125I-NGF (0.5 nM) to TrkA (TrkA): 87 ± 13 % Control; Reversal of Zn2+ inhibition of TrkA phosphorylation (TrkA receptor; CaEDTA 100 μM with Zn2+ 100 μM): reversed by CaEDTA |
